Assays:
[1] = biological target: T1, mu opioid receptor (Rattus norvegicus, UniProt P33535); assay: Rat Brain Mu Opioid Receptor Binding Assay; conditions: rat forebrain membrane preparation; [3H]DAMGO, 25° C., 2.5 h
T1 construct: Following incubation with the mu selective peptide ligand, ˜0.8 nM [^3H]DAMGO; from tissue; host or cells: rat forebrain homogenate (male Wistar rats), particulate membrane preparation

[2] = biological target: T2, delta opioid receptor (Rattus norvegicus, UniProt P33533); assay: Rat Brain Delta Opioid Receptor Binding Assay; conditions: rat forebrain membrane preparation; [3H]DPDPE or [3H]naltrindole, 25° C., 2.5 h
T2 construct: from tissue; host or cells: rat forebrain homogenate (male Wistar rats), particulate membrane preparation
T2 sequence (P33533 whole entry): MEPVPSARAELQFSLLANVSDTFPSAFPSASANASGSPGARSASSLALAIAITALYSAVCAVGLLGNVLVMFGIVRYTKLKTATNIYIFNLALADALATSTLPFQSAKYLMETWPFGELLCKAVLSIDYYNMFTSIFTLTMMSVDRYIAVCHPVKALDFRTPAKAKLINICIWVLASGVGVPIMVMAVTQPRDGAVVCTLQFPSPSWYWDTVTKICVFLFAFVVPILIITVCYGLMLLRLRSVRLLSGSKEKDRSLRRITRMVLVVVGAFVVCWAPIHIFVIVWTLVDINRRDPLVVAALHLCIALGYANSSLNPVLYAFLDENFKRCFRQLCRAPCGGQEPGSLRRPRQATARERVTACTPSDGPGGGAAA

T1 sequence (P33535 whole entry): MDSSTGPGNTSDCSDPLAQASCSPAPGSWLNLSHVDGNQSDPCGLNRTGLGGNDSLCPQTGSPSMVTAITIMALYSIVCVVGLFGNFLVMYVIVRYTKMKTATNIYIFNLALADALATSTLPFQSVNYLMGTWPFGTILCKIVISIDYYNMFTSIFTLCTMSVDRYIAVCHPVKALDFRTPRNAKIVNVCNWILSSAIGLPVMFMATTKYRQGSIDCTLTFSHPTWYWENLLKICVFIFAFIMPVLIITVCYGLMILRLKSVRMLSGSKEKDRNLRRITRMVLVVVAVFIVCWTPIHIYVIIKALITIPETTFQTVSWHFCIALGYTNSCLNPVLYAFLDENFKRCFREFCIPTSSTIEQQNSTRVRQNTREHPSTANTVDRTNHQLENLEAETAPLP

SMILES	Ki [1] [nM]	Ki [2] [nM]
Brc1ccc2c(c1)Sc1ccccc1N2C1C[C@H]2CC[C@@H](C1)N2 (mixture of isomers) [Compound 4i, 10-(8-Aza-bicyclo[3.2.1]oct-3-yl)-3-bromo-10H-phenothiazine]	6610	881
CC(=O)Nc1ccccc1-c1ccc2c(c1)Sc1ccccc1N2C1C[C@H]2CC[C@@H](C1)N2Cc1ccoc1 (mixture of isomers) [Compound 7i, N-{2-[10-(8-Furan-3-ylmethyl-8-aza-bicyclo[3.2.1]oct-3-yl)-10H-phenothiazin-3-yl]-phenyl}-acetamide]	554	123
c1csc(CN2[C@@H]3CC[C@H]2C[C@@H](N2c4ccccc4Oc4cc(-c5ccncc5)ccc42)C3)c1 [Compound 6k, Endo-3-Pyridin-4-yl-10-(8-thiophen-2-ylmethyl-8-aza-bicyclo[3.2.1]oct-3-yl)-10H-phenoxazine]		14200
COC(=O)c1ccc2c(c1)Oc1ccccc1N2C1CC2CCC(C1)N2C (stereo not drawn) [Compound 2a, 10-(8-Methyl-8-aza-bicyclo[3.2.1]oct-3-yl)-10H-phenoxazine-3-carboxylic acid methyl ester]	5150	697
c1ccc2c(c1)Oc1cc(-c3ccncc3)ccc1N2[C@@H]1C[C@H]2CC[C@@H](C1)N2 [Compound 2m, Exo-10-(8-Aza-bicyclo[3.2.1]oct-3-yl)-3-pyridin-4-yl-10H-phenoxazine]		634
c1ccc2c(c1)Oc1cc(-c3ccncc3)ccc1N2[C@@H]1C[C@H]2CC[C@@H](C1)N2Cc1ccoc1 [Compound 5m, Exo-10-(8-Furan-3-ylmethyl-8-aza-bicyclo[3.2.1]oct-3-yl)-3-pyridin-4-yl-10H-phenoxazine]		1280
CC(=O)Nc1ccccc1-c1ccc2c(c1)Oc1ccccc1N2[C@H]1C[C@H]2CC[C@@H](C1)N2Cc1cccs1 [Compound 4x, Endo-N-{2-[10-(8-Thiophen-2-ylmethyl-8-aza-bicyclo[3.2.1]oct-3-yl)-10H-phenoxazin-3-yl]-phenyl}-acetamide]		161
Oc1cccc2c1Oc1cc(-c3ccncc3)ccc1N2[C@H]1C[C@H]2CC[C@@H](C1)N2CCc1ccccc1 [Compound 10v, Endo-10-(8-Phenethyl-8-aza-bicyclo[3.2.1]oct-3-yl)-7-pyridin-4-yl-10H-phenoxazin-4-ol]		> 10000
N#Cc1ccc2c(c1)Oc1ccccc1N2[C@H]1C[C@H]2CC[C@@H](C1)N2 [Compound 8b, Endo-10-(8-Aza-bicyclo[3.2.1]oct-3-yl)-10H-phenoxazine-3-carbonitrile]	> 10000	1900
CC(C)=CCN1[C@@H]2CC[C@H]1CC(N1c3ccccc3Sc3cc(-c4cccnc4)ccc31)C2 (mixture of isomers) [Compound 8i, 10-[8-(3-Methyl-but-2-enyl)-8-aza-bicyclo[3.2.1]oct-3-yl]-3-pyridin-3-yl-10H-phenothiazine]	889	444
c1ccc(CN2[C@@H]3CC[C@H]2C[C@@H](N2c4ccccc4Oc4cc(-c5cccnc5)ccc42)C3)nc1 [Compound 7j, Endo-3-Pyridin-3-yl-10-(8-pyridin-2-ylmethyl-8-aza-bicyclo[3.2.1]oct-3-yl)-10H-phenoxazine]		104
CCN(CC)C(=O)c1ccc2c(c1)Oc1ccccc1N2[C@@H]1C[C@H]2CC[C@@H](C1)N2CCc1ccccc1 [Compound 3u, Exo-10-(8-Phenethyl-8-aza-bicyclo[3.2.1]oct-3-yl)-10H-phenoxazine-3-carboxylic acid diethylamide]		1360
C=CCN1[C@@H]2CC[C@H]1CC(N1c3ccccc3Sc3cc(-c4ccccc4NC(C)=O)ccc31)C2 (mixture of isomers) [Compound 13i, N-{2-[10-(8-Allyl-8-aza-bicyclo[3.2.1]oct-3-yl)-10H-phenothiazin-3-yl]-phenyl}-acetamide]	3740	552
c1csc(CN2[C@@H]3CC[C@H]2CC(N2c4ccccc4Sc4cc(-c5ccncc5)ccc42)C3)c1 (mixture of isomers) [Compound 12i, 3-Pyridin-4-yl-10-(8-thiophen-2-ylmethyl-8-aza-bicyclo[3.2.1]oct-3-yl)-10H-phenothiazine]	1450	491
c1cncc(-c2ccc3c(c2)Oc2ccccc2N3[C@H]2C[C@H]3CC[C@@H](C2)N3)c1 [Compound 5j, Endo-10-(8-Aza-bicyclo[3.2.1]oct-3-yl)-3-pyridin-3-yl-10H-phenoxazine]		409
c1ccc(CN2[C@@H]3CC[C@H]2C[C@@H](N2c4ccccc4Oc4cc(-c5ccncc5)ccc42)C3)nc1 [Compound 4k, Endo-3-Pyridin-4-yl-10-(8-pyridin-2-ylmethyl-8-aza-bicyclo[3.2.1]oct-3-yl)-10H-phenoxazine]		445
CC(=O)Nc1ccccc1-c1ccc2c(c1)Sc1ccccc1N2C1C[C@H]2CC[C@@H](C1)N2C (mixture of isomers) [Compound 16i, N-{2-[10-(8-Methyl-8-aza-bicyclo[3.2.1]oct-3-yl)-10H-phenothiazin-3-yl]-phenyl}-acetamide]	2650	1450

SMILES	Ki [1] [nM]	Ki [2] [nM]
c1ccc(CCN2[C@@H]3CC[C@H]2C[C@@H](N2c4ccccc4Oc4cc(-c5ccncc5)ccc42)C3)cc1 [Compound 3k, Endo-10-(8-Phenethyl-8-aza-bicyclo[3.2.1]oct-3-yl)-3-pyridin-4-yl-10H-phenoxazine]		3390
c1ccc(CN2[C@@H]3CC[C@H]2C[C@H](N2c4ccccc4Oc4cc(-c5cccnc5)ccc42)C3)nc1 [Compound 5l, Exo-3-Pyridin-3-yl-10-(8-pyridin-2-ylmethyl-8-aza-bicyclo[3.2.1]oct-3-yl)-10H-phenoxazine]		539
COc1cccc2c1Oc1cc(-c3ccncc3)ccc1N2[C@H]1C[C@H]2CC[C@@H](C1)N2CCc1ccccc1 [Compound 13v, Endo-6-Methoxy-10-(8-phenethyl-8-aza-bicyclo[3.2.1]oct-3-yl)-3-pyridin-4-yl-10H-phenoxazine]		> 10000
c1ccc(CCN2[C@@H]3CC[C@H]2C[C@H](N2c4ccccc4Oc4cc(-c5ccncc5)ccc42)C3)cc1 [Compound 3m, Exo-10-(8-Phenethyl-8-aza-bicyclo[3.2.1]oct-3-yl)-3-pyridin-4-yl-10H-phenoxazine]		480
CC(=O)Nc1ccccc1-c1ccc2c(c1)Sc1ccccc1N2C1C[C@H]2CC[C@@H](C1)N2Cc1ncc[nH]1 (mixture of isomers) [Compound 15i, N-(2-{10-[8-(1H-Imidazol-2-ylmethyl)-8-aza-bicyclo[3.2.1]oct-3-yl]-10H-phenothiazin-3-yl}-phenyl)-acetamide]	169	630
c1ccc(CN2[C@@H]3CC[C@H]2CC(N2c4ccccc4Sc4cc(-c5cccnc5)ccc42)C3)nc1 (mixture of isomers) [Compound 9i, 3-Pyridin-3-yl-10-(8-pyridin-2-ylmethyl-8-aza-bicyclo[3.2.1]oct-3-yl)-10H-phenothiazine]	538	649
CN(CCc1ccccc1)C(=O)c1ccc2c(c1)Oc1ccccc1N2C1CC2CCC(C1)N2C (stereo not drawn) [Compound 6a, 10-(8-Methyl-8-aza-bicyclo[3.2.1]oct-3-yl)-10H-phenoxazine-3-carboxylic acid methyl-phenethyl-amide]	819	575
CC(=O)Nc1ccccc1-c1ccc2c(c1)Oc1ccccc1N2[C@H]1C[C@H]2CC[C@@H](C1)N2CCc1ccccc1 [Compound 3x, Endo-N-{2-[10-(8-Phenethyl-8-aza-bicyclo[3.2.1]oct-3-yl)-10H-phenoxazin-3-yl]-phenyl}-acetamide]		1590
c1cncc(-c2ccc3c(c2)Oc2ccccc2N3[C@H]2C[C@H]3CC[C@@H](C2)N3Cc2cccs2)c1 [Compound 9j, Endo-3-Pyridin-3-yl-10-(8-thiophen-2-ylmethyl-8-aza-bicyclo[3.2.1]oct-3-yl)-10H-phenoxazine]		11900
c1cncc(-c2ccc3c(c2)Oc2ccccc2N3[C@@H]2C[C@H]3CC[C@@H](C2)N3)c1 [Compound 3l]		729
c1ccc(CCN2[C@@H]3CC[C@H]2C[C@H](N2c4ccccc4Oc4cc(-c5cccnc5)ccc42)C3)cc1 [Compound 4l, Exo-10-(8-Phenethyl-8-aza-bicyclo[3.2.1]oct-3-yl)-3-pyridin-3-yl-10H-phenoxazine]		425
c1ccc(CN2[C@@H]3CC[C@H]2C[C@H](N2c4ccccc4Oc4cc(-c5ccncc5)ccc42)C3)nc1 [Compound 4m, Exo-3-Pyridin-4-yl-10-(8-pyridin-2-ylmethyl-8-aza-bicyclo[3.2.1]oct-3-yl)-10H-phenoxazine]		869
N#Cc1ccc2c(c1)Sc1ccccc1N2C1C[C@H]2CC[C@@H](C1)N2 (mixture of isomers) [Compound 1aa, 10-(8-Aza-bicyclo[3.2.1]oct-3-yl)-10H-phenothiazine-3-carbonitrile]		931
c1ccc2c(c1)Oc1cc(-c3ccncc3)ccc1N2[C@H]1C[C@H]2CC[C@@H](C1)N2Cc1ccoc1 [Compound 5k, Endo-10-(8-Furan-3-ylmethyl-8-aza-bicyclo[3.2.1]oct-3-yl)-3-pyridin-4-yl-10H-phenoxazine]		247
c1ccc(CCN2[C@@H]3CC[C@H]2C[C@@H](N2c4ccccc4Oc4cc(-c5cccnc5)ccc42)C3)cc1 [Compound 6j, Endo-10-(8-Phenethyl-8-aza-bicyclo[3.2.1]oct-3-yl)-3-pyridin-3-yl-10H-phenoxazine]		3260
CCN(CC)C(=O)c1ccc2c(c1)Oc1ccccc1N2[C@H]1C[C@H]2CC[C@@H](C1)N2CCc1ccccc1 [Compound 6t, Endo-10-(8-Phenethyl-8-aza-bicyclo[3.2.1]oct-3-yl)-10H-phenoxazine-3-carboxylic acid diethylamide]		231
c1ccc2c(c1)Oc1cc(-c3ccncc3)ccc1N2[C@H]1C[C@H]2CC[C@@H](C1)N2 [Compound 2k, Endo-10-(8-Aza-bicyclo[3.2.1]oct-3-yl)-3-pyridin-4-yl-10H-phenoxazine]		696
